Assay results published in US20220008447A1, “Rosacea Treatment Method” (priority 2019, published 2022).

Assays:
rosacea = details: cited from earlier work
patient with rosacea = experiment: Application b.i.d. of other Delphinidin topical formulations to the face of a rosacea patient (Examples 11-13, present tense); assay type: in vivo, human
Description: A topical gel is made with delphinidin 3,5-O-diglucoside 7% (w/w) in a standard cosmetic disappearing gel base. Application b.i.d. to the face of a patient with lupus-related rosacea, for at least about one month alleviates lupus-related skin inflammation and the patient maintains normal, healthy skin. A topical cream is made with delphinidin 6% (w/w) in a standard cosmetic lipophilic cream base. […] A topical cream is made with delphinidin 3-O-sambubioside 5-O-glucoside 3% (w/w) in a standard cosmetic disappearing cream base. Application b.i.d. to the face of a patient with papulopustular rosacea with transient, central face pustules for two months reduces central facial erythema and eliminates transient central face pustules.

[1] = Example 13, 3% (w/w) disappearing cream, papulopustular rosacea, two months

For `Cc1ncc([N+](=O)[O-])n1CCO` [metronidazole], which reducing rosacea symptoms (rosacea; prior-art treatment) is on record?
Its reducing rosacea symptoms is “effective and safe”.

What about the side effects (rosacea; prior-art treatment) of the same compound?
The side effects was “very few people experienced mild itching, skin irritation and dry skin”.

And the “time until improvements appear” value (rosacea; prior-art treatment)?
The value was “three to six”.

For `O=C(O)CCCCCCCC(=O)O` [azelaic acid], which reducing rosacea symptoms (rosacea; prior-art treatment) is on record?
The reducing rosacea symptoms was “effective and safe”.

And the side effects (rosacea; prior-art treatment)?
Its side effects is “caused mild burning, stinging or irritation”.

What about the “time until improvements appear” value (rosacea; prior-art treatment) of the same compound?
Its value is “three to six”.

For `OC[C@H]1O[C@@H](Oc2cc3c(O[C@@H]4O[C@H](CO)[C@@H](O)[C@H](O)[C@H]4O)cc(O)cc3[o+]c2-c2cc(O)c(O)c(O)c2)[C@H](O)[C@@H](O)[C@@H]1O` [delphinidin 3,5-O-diglucoside], which lupus-related skin inflammation (patient with rosacea; Example 11, 7% (w/w) topical gel, lupus-related rosacea, at least about one month) is on record?
Its lupus-related skin inflammation is “alleviates”.

For `CC[C@H]1OC(=O)[C@H](C)[C@@H](O[C@H]2C[C@@](C)(OC)[C@@H](O)[C@H](C)O2)[C@H](C)[C@@H](O[C@@H]2O[C@H](C)C[C@H](N(C)C)[C@H]2O)[C@](C)(O)C[C@@H](C)CN(C)[C@H](C)[C@@H](O)[C@]1(C)O` [Azithromycin], which “efficacy compared with 100 mg doxycycline” value (rosacea; only one study) is on record?
The value was “may be as effective as 100 mg doxycycline”.

Which “efficacy compared with placebo and metronidazole” value (rosacea; prior-art treatment) does the source give for Ivermectin here?
The value was “more effective than placebo and slightly more effective than metronidazole”.

With `OC[C@H]1O[C@@H](Oc2cc(O)cc3[o+]c(-c4cc(O)c(O)c(O)c4)c(O[C@@H]4O[C@H](CO)[C@@H](O)[C@H](O)[C@H]4O[C@@H]4OC[C@@H](O)[C@H](O)[C@H]4O)cc23)[C@H](O)[C@@H](O)[C@@H]1O` [delphinidin 3-O-sambubioside 5-O-glucoside] as the compound, how does the central facial erythema (patient with rosacea; [1]) read?
The central facial erythema was “reduces”.

And the “transient central face pustules” value (patient with rosacea; [1])?
Its value is “eliminates”.

With `Brc1c(NC2=NCCN2)ccc2nccnc12` [brimonidine] as the compound, how does the “duration of effect on redness after being applied” value (rosacea; prior-art treatment) read?
The value was “up to 12 hours”.

With `C[C@H]1c2cccc(O)c2C(=O)C2=C(O)[C@]3(O)C(=O)C(C(N)=O)=C(O)[C@@H](N(C)C)[C@@H]3[C@@H](O)[C@@H]21` [doxycycline] as the compound, how does the “side effects of low dose compared with 100 mg” value (rosacea; low dose, 40 mg) read?
The value was “much fewer side effects of diarrhea and nausea”.

For `Oc1cc(O)c2cc(O)c(-c3cc(O)c(O)c(O)c3)[o+]c2c1` [delphinidin, 2-(3,4,5-trihydroxyphenyl) chromenylium-3,5,7-triol], which “flushing, persistent central facial erythema and telangiectasia” value (patient with rosacea; Example 12, 6% (w/w) lipophilic cream, erythematotelangiectatic rosacea, two weeks) is on record?
The value was “measurably reduces”.

For `CC1=C(/C=C/C(C)=C/C=C/C(C)=C\C(=O)O)C(C)(C)CCC1` [isotretinoin], which “efficacy compared with doxycycline, pimples and pustules” value (rosacea; low dose, 0.3 mg/kg) is on record?
Its value is “slightly more effective than 50-100 mg doxycycline”.
